In patent US10815235B2, “Polycyclic compounds and uses thereof” (priority 2017, dated 2020):
Like-named read-outs stand apart in the source and are kept apart here.

Experiments:
[1] = molecular target: Serotonin 5-HT1D receptor (Homo sapiens, UniProt P28221); assay: GTPγS Scintillation Proximity Assay, agonist and antagonist mode; format: biochemical
Procedure: Antagonist and agonist activities were determined using a GTPγS Scintillation Proximity Assay. The assay was prepared as follows: Membrane extracts were prepared from recombinant human Dopamine D2L, D3; Serotonin 5-HT1A, 5-HT1B, 5-HT1D and 5-HT1F receptors.
Samples were tested by proprietary biological assays by Ogeda S. A., Euroscreen FAST Business Unit, Rue Adrienne Bolland, 47 B-6041 Gosselies, Belgium. Each protein assay was prepared using the following conditions.
5-HT1D • Assay buffer: 20 mM HEPES pH 7.4; 200 mM NaCl, 10 μg/ml saponin, 3 mM MgCl2; • Membranes: recombinant 5-HT1D membrane extracts thawed on ice and diluted in assay buffer to give […] and kept on ice; • GDP: diluted in assay buffer to give a 30 μM working solution (3 μM final concentration); • Beads: PVT-WGA (Perkin Elmer, RPNQ001), diluted in assay buffer at 50 mg/ml (0.5 mg/10 μl); and • GTPγ^35S: (PerkinElmer NEG030X), diluted in assay buffer to give 0.1 nM.
Membranes were mixed with GDP (volume:volume 1:1) and incubated for at least 15 min on ice. In parallel, GTPγ[^35S] is mixed with the beads (volume:volume 1:1) just before starting the reaction.
To determine agonist activity, the following reagents were added in the wells of an Optiplate (Perkin Elmer): 50 μL of test or reference ligand, 10 μL of assay buffer, 20 μl of the membranes:GDP mix, and 20 μL of the GTPγ[^35S]:beads mix. EC50 values were used to determine whether a compound acted as an agonist.
To determine antagonist activity, the following reagents were added in the wells of an Optiplate (Perkin Elmer): 50 μL of test or reference ligand, 20 μL of the membranes:GDP mix, then the plate is incubated 15 minutes at room temperature. After incubation, 10 μL of reference agonist at historical EC80 (final concentration) was added, followed by 20 μL of the GTPγ[^35S]:beads mix.
The plates were covered with a top seal, mixed on an orbital shaker for 2 min, and then incubated for 1 hour at room temperature. Then the plates were centrifuged for 10 min at 2000 rpm, incubated at room temperature 1 hour and counted for 1 min/well with a PerkinElmer TopCount reader. IC50 values were used to determine whether a compound acted as an antagonist.

[2] = molecular target: T1, Adrenergic α1A receptor (Homo sapiens, UniProt P35348); assay: IPOne HTRF assay, agonist and antagonist mode; format: cell-based
T1 construct: expressed in transfected cells; host or cells: CHO-K1
T1 sequence (P35348 1-466): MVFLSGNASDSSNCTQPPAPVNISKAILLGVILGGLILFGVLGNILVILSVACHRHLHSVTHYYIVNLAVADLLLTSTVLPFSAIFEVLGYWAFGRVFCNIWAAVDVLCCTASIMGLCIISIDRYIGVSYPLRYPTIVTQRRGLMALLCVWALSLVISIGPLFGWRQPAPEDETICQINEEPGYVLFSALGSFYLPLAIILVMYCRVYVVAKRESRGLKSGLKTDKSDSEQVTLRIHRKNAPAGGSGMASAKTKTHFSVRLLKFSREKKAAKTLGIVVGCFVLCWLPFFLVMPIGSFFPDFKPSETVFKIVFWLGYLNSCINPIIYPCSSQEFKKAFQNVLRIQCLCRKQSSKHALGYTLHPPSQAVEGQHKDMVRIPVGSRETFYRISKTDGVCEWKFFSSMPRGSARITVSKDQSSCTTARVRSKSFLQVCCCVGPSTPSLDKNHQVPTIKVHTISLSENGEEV
Procedure: (§1) Antagonist and agonist activities were determined using an IPOne […] HTRF assay. The assay was prepared as follows: CHO-K1 cells expressing human recombinant Adrenergic α1A, Serotonin 5-HT2A, and 5-HT2B receptors grown to mid-log phase in culture media without antibiotics were detached with PBS-EDTA, centrifuged and resuspended in medium without antibiotics buffer. 20,000 cells were distributed in a 96 well plate and incubated overnight at 37° C. with 5% CO2.
(§2) To analyze agonist activity, the medium was removed and 20 μl of assay buffer plus 20 μl of test compound or reference agonist were added in each well. The plate was incubated for 60 min. at 37° C. with 5% CO2. EC50 values were used to determine whether a compound acted as an agonist.
(§3) To analyze antagonist activity, 20 μl of test compound or reference antagonist was added and the plate is incubated for 15 min. at 37° C. in a humidified atmosphere of 95% air with 5% CO2, then 20 μl of reference agonist at a final concentration corresponding to the historical EC80 is added. The plate is incubated for 60 min. at 37° C. with 5% CO2. IP1-D2 reagent and anti-IP1 cryptate reagents are then dispensed in the wells and IP1 concentrations are then measured following the manufacturer recommendations. IC50 values were used to determine whether a compound acted as an antagonist.

[3] = molecular target: T2, Serotonin 5-HT2A receptor (Homo sapiens, UniProt P28223); assay: IPOne HTRF assay, agonist and antagonist mode; format: cell-based
T2 construct: expressed in transfected cells; host or cells: CHO-K1
Procedure: as §1, §2, §3

[4] = molecular target: T3, Serotonin 5-HT2B receptor (Homo sapiens, UniProt P41595); assay: IPOne HTRF assay, agonist and antagonist mode; format: cell-based
T3 construct: expressed in transfected cells; host or cells: CHO-K1
Procedure: as §1, §2, §3

[5] = Antagonist Activity (IC50), 5-HT1D, membrane extracts, vs reference agonist at EC80
[6] = IC50 value for the Serotonin 5-HT1D receptor, antagonist mode, bound stated
[7] = Antagonist Activity (IC50), α1A, CHO-K1 cells, vs reference agonist at EC80
[8] = IC50 value for the Adrenergic α1A receptor, antagonist mode, bound stated
[9] = CHO-K1 cells, vs reference agonist at EC80, read-out: Antagonist Activity (IC50), 5-HT2A
[10] = antagonist mode, bound stated, read-out: IC50 value for the Serotonin 5-HT2A receptor
[11] = CHO-K1 cells, vs reference agonist at EC80, read-out: Antagonist Activity (IC50), 5-HT2B
[12] = antagonist mode, bound stated, read-out: IC50 value for the Serotonin 5-HT2B receptor
[13] = CHO-K1 cells, read-out: Agonist Activity (EC50), 5-HT2A
[14] = agonist mode, bound stated, read-out: EC50 value for the Serotonin 5-HT2A receptor

T2 sequence (P28223 whole entry): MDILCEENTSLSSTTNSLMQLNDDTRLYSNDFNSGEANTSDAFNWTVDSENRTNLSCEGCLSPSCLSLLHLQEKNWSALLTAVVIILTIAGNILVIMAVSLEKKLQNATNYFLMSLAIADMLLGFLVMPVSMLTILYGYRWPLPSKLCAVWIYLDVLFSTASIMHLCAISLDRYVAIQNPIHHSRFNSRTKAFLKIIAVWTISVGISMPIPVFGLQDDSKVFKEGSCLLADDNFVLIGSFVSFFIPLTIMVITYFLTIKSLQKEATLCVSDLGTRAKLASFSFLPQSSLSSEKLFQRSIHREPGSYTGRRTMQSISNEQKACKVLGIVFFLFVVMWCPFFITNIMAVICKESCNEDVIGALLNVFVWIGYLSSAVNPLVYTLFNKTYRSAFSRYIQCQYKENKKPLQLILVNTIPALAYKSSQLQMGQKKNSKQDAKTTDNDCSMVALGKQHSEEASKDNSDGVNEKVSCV
Sequence of Serotonin 5-HT1D receptor (P28221 whole entry): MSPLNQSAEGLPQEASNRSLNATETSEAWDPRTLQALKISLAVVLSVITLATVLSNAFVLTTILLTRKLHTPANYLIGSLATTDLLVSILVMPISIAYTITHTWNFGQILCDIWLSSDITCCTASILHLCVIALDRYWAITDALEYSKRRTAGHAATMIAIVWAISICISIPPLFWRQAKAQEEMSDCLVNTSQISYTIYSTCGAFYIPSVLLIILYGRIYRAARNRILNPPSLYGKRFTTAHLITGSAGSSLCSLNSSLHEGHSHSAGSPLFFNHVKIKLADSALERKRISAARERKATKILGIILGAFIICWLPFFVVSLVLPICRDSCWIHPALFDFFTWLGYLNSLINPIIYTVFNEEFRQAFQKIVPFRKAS
T3 sequence (P41595 whole entry): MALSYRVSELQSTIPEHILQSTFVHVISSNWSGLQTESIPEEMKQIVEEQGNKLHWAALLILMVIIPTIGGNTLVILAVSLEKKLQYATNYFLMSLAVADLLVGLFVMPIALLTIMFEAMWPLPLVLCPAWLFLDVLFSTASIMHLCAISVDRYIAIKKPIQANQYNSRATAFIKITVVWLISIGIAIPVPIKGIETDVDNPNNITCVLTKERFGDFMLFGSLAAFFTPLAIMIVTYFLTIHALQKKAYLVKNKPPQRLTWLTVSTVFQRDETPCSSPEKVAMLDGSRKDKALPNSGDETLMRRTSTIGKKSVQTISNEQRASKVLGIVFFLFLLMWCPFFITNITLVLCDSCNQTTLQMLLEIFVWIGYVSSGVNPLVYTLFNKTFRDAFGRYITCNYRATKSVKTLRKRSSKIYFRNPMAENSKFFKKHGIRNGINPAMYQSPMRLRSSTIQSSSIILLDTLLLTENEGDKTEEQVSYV

| SMILES | IC50 [1, 5] [nM] | IC50 [1, 6] [nM] | IC50 [2, 7] [nM] | IC50 [2, 8] [nM] | IC50 [3, 9] [nM] | IC50 [3, 10] [nM] | IC50 [4, 11] [nM] | IC50 [4, 12] [nM] | EC50 [3, 13] [nM] | EC50 [3, 14] [nM] | EC50 ([4]; agonist mode, bound stated) [nM] | IC50 ([1]; membrane extracts, vs reference agonist at EC80, read-out: Antagonist Activity (IC50), 5-HT1D) [nM] | IC50 ([2]; CHO-K1 cells, vs reference agonist at EC80, read-out: Antagonist Activity (IC50), α1A) [nM] | IC50 ([3]; Antagonist Activity (IC50), 5-HT2A, CHO-K1 cells, vs reference agonist at EC80) [nM] | IC50 ([3]; IC50 value for the Serotonin 5-HT2A receptor, antagonist mode, bound stated) [nM] | IC50 ([4]; Antagonist Activity (IC50), 5-HT2B, CHO-K1 cells, vs reference agonist at EC80) [nM] | IC50 ([4]; IC50 value for the Serotonin 5-HT2B receptor, antagonist mode, bound stated) [nM] | EC50 ([1]; Agonist Activity (EC50), 5-HT1D, membrane extracts) [nM] | EC50 ([1]; EC50 value for the Serotonin 5-HT1D receptor, agonist mode, bound stated) [nM] |
| --- | --- | --- | --- | --- | --- | --- | --- | --- | --- | --- | --- | --- | --- | --- | --- | --- | --- | --- | --- |
| CCN(CC(F)(F)F)C(=O)N[C@H]1C[C@@H]2c3cccc4[nH]c(C5CC5)c(c34)C[C@H]2N(C)C1 [Compound A17H, 3-((6aR,9S,10aR)-5-cyclopropyl-7-methyl-4,6,6a,7,8,9,10,10a-octahydroindolo[4,3-fg]quinolin-9-yl)-1-ethyl-1-(2,2,2-trifluoroethyl)urea] | 50 | < 1000 | 13 | < 1000 | 11 | < 1000 | 25 | < 1000 | – | – | – | – | – | – | – | – | – | – | – |
| CCN(CC)C(=O)N[C@H]1C[C@@H]2c3cccc4[nH]c(C(F)(F)F)c(c34)C[C@H]2N(C)C1 [Compound A9H, 1,1-diethyl-3-((6aR,9S,10aR)-7-methyl-5-(trifluoromethyl)-4,6,6a,7,8,9,10,10a-octahydroindolo[4,3-fg]quinolin-9-yl)urea] | 10 | < 1000 | 9.1 | < 1000 | 110 | < 1000 | 23 | < 1000 | 12 | < 1000 | – | – | – | – | – | – | – | – | – |
| CCN(CC)C(=O)N[C@H]1C[C@@H]2c3cccc4[nH]c(Br)c(c34)C[C@H]2N(C)C1 [Compound A8H, 3-((6aR,9S, 10aR)-5-bromo-7-methyl-4,6,6a,7,8,9,10,10a-octahydroindolo[4,3-fg]quinolin-9-yl)-1,1-diethylurea] | 8 | < 1000 | 14 | < 1000 | 14 | < 1000 | 52 | – | 6.9 | < 1000 | < 1000 | – | – | – | – | – | – | – | – |
| CCN(CC(F)(F)F)C(=O)N[C@H]1C[C@@H]2c3cccc4[nH]c(C(F)(F)F)c(c34)C[C@H]2N(C)C1 [Compound A16H, 1-ethyl-3-((6aR,9S,10aR)-7-methyl-5-(trifluoromethyl)-4,6,6a,7,8,9,10,10a-octahydroindolo[4,3-fg]quinolin-9-yl)-1-(2,2,2-trifluoroethyl)urea] | – | < 1000 | – | < 1000 | – | – | – | – | – | – | – | 14 | 15 | 16 | < 1000 | 16 | < 1000 | – | – |
| CC[C@@H](CO)NC(=O)[C@@H]1C[C@@H]2c3cccc4c3c(c(C3CC3)n4C)C[C@H]2N(C)C1 [Compound D13H, (6aR,9R,10aR)-5-cyclopropyl-N—((S)-1-hydroxybutan-2-yl)-4,7-dimethyl-4,6,6a,7,8,9,10,10a-octahydroindolo[4,3-fg]quinoline-9-carboxamide] | – | – | – | – | 74 | < 1000 | 3.4 | < 1000 | – | – | – | – | – | – | – | – | – | 11 | < 1000 |
